Key:
Type in all cases: cell-based
endogenous BCL-xL = biological target: T1, endogenous BCL-xL (Homo sapiens, UniProt Q07817); experiment: Degradation of endogenous BCL-xL in COR-L105 (ProteinSimple Jess); conditions: COR-L105, 24 h, COR-L105, dose 300 nM, read-out: % BCL-xL vs. Untreated, COR-L105
T1 construct: endogenous in cells; host or cells: COR-L105 (ECACC No. 92031918); NCI-H1650 (ATCC No. CRL-5883)
Experimental: The BCL-xL degrader low molecular weight compounds were tested against two endogenous cancer cell lines: • COR-L105: ECACC No. 92031918 cultured in RPMI-1640+10% FBS • NCI-H1650: (ATCC No. CRL-5883 cultured in RPMI-1640+10% FBS
The ability of the BCL-xL degrader low molecular weight compounds to degrade endogenous BCL-xL was assessed using the ProteinSimple 2-40 kDa Jess Separation Module.
Cell lines were cultured in media that is optimal for their growth at 5% CO2, 37° C. in a tissue culture incubator. Prior to seeding for the degradation assay, the cells were split at least 2 days before the assay to ensure optimal growth density. On the day of seeding, adherent cells were lifted off tissue culture flasks using 0.25% trypsin. Cell viability and cell density were determined using a cell counter (Vi-Cell XR Cell Viability Analyzer, Beckman Coulter). Cells with higher than 85% viability were seeded for the assay.
The COR-L105 and the NCI-H1650 cell line were seeded in 6-well clear TC-treated multiple well plates (Costar® cat. #3516). Cells were seeded at a density of 2,000,000 cells per well in 2.5 mL of standard growth media. Plates were incubated at 5% CO2, 37° C. overnight in a tissue culture incubator. On the day of dosing, BCL-xL degrader low molecular weight compounds and a BCL-xL inhibitor control were prepared at 6× in standard growth media. The prepared drug treatments were then added to the cells resulting in a final concentration of 100-300 nM and a final volume of 3.0 mL per well. A control well of untreated cells was also included in the study. Each drug concentration was tested in singlet. Plates were incubated at 5% CO2, 37° C. for 24 hours in a tissue culture incubator.
After 24 hours, the adherent cells were lifted off tissue culture plates using 0.25% trypsin. Standard growth media was added to quench the trypsin and centrifuged for 5 minutes at 1500 rpm. Cell pellets were washed once with cold PBS and centrifuged for 5 minutes at 1500 rpm. Cells were then washed with 1 mL cold PBS and transferred to a 1.5 mL eppendorf tube. Cells were centrifuged for 10 minutes at ≥10,000 g at 4° C. in a benchtop mini-centrifuge. The entire supernatant was discarded and cells were resuspended thoroughly in 50 μL of RIPA lysis buffer, generated by the manufacturer's protocol (ProteinSimple, Cat. #CBS401: Lysis Kit—RIPA Buffer for Charge Assays). Lysates were incubated on ice for 30 minutes. Following incubation, lysates were spun in a benchtop mini-centrifuge for 15 minutes at full speed at 4° C. Supernatant was carefully transferred to a new eppendorf tube for downstream analysis.
Protein was quantified using a Pierce™ BCA Protein Assay Kit (ThermoFisher, cat #23225) following the manufacturer's instructions. A standard curve was prepared by adding 25 μL of each concentration of reference samples from a Pierce™ Bovine Serum Albumin Standard Pre-Diluted Set (ThermoFisher, cat #23208). Each reference sample was run in duplicate. Testing samples were prepared by diluting cell lysates 1:5 in UltraPure™ DNase/RNase-Free Distilled Water and tested in duplicates of 25 μL each. The BCA working reagent was prepared by addition of 50 parts of BCA Reagent A with 1 part of BCA Reagent B. For each testing well, 200 μL of BCA working reagent was added. The plate was incubated at 37° C. for 30 minutes. A SpectraMax M Series Multi-Mode Microplate Reader was used to measure the absorbance at 562 nm. A standard curve generated by the Pierce™ Bovine Serum Albumin Standard Pre-Diluted Set was used to normalize and calculate the BCA concentration of cell lysates. Only values that fell within the range of the standard curve were accepted for quantification.
The ProteinSimple 2-40 kDa Jess Separation Module was used to detect BCL-xL degradation in treated versus untreated lysates following the manufacturer's instructions (25-Capillary Cartridge, 8 pack, 2-40 kDa, cat #SM W012). […]

NCI-H1650 = experiment: CellTiter-Glo 3D proliferation assay, NCI-H1650 spheroids; conditions: Homo sapiens, NCI-H1650, 120 h, 5 days; for Emax: read-out: NCI-H1650 Span (Amax)
In short: (§1)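 Both lines grown in RPMI-1640 + 10% FBS. COR-L105 plated flat at 1,000 cells/well overnight; NCI-H1650 grown as spheroids, 3,000 cells/well, 72 h. Compounds at 0.508 nM-10 μM final for 5 days, 37° C. ATP read by CellTiter-Glo (3D version for spheroids); IC50 from variable-slope fit normalized to untreated cells.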

COR-L105 = experiment: CellTiter-Glo proliferation assay, COR-L105; conditions: Homo sapiens, COR-L105, 120 h, COR-L105, 5 days; for Emax: read-out: COR-L105 Span (max)
In short: as §1

T1 sequence (Q07817 whole entry): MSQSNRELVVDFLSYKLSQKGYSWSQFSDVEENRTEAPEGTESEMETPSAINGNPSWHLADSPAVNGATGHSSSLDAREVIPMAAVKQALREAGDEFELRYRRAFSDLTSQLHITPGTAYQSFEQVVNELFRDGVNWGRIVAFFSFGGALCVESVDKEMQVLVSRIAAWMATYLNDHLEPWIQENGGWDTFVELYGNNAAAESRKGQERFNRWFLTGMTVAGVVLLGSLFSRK

remaining activity at 0.3 µM (endogenous BCL-xL) [%] | IC50 (NCI-H1650) [nM] | SMILES | Emax (NCI-H1650) [%] | IC50 (COR-L105) [nM] | Emax (COR-L105) [%]
> 90 | 37.3 | Cc1ncsc1-c1ccc([C@H](C)NC(=O)[C@@H]2C[C@@H](O)CN2C(=O)[C@@H](NC(=O)CN(C)CC(=O)N2CCN(CC#Cc3ccc(OCCCc4sc(N5CCCc6c5nnc(Nc5nc7ccccc7s5)c6C)nc4C(=O)O)c(F)c3)CC2)C(C)(C)C)cc1 [Example 36, 2-(3-(benzo[d]thiazol-2-ylamino)-4-methyl-6,7-dihydropyrido [2,3-c]pyridazin-8(5H)-yl)-5-(3-(2-fluoro-4-(3-(4-(N-(2-(((S)-1-((2S,4R)-4-hydroxy-2-(((S)-1-(4-(4-methylthiazol-5-yl)phenyl)ethyl)carbamoyl)pyrrolidin-1-yl)-3,3-dimethyl-1-oxobutan-2-yl)amino)-2-oxoethyl)-N-methylglycyl)piperazin-1-yl)prop-1-yn-1-yl)phenoxy)propyl) thiazole-4-carboxylic acid] | 68.3 | 296 | 94.1
82.4 | 39.7 | Cc1ncsc1-c1ccc([C@H](C)NC(=O)[C@@H]2C[C@@H](O)CN2C(=O)[C@@H](NC(=O)CSCC(=O)N2CCN(CC#Cc3ccc(OCCCc4sc(N5CCCc6c5nnc(Nc5nc7ccccc7s5)c6C)nc4C(=O)O)c(F)c3)CC2)C(C)(C)C)cc1 [Example 37, 2-(3-(benzo[d]thiazol-2-ylamino)-4-methyl-6,7-dihydropyrido [2,3-c]pyridazin-8(5H)-yl)-5-(3-(2-fluoro-4-(3-(4-(2-((2-(((S)-1-((2S,4R)-4-hydroxy-2-(((S)-1-(4-(4-methylthiazol-5-yl)phenyl)ethyl)carbamoyl)pyrrolidin-1-yl)-3,3-dimethyl-1-oxobutan-2-yl)amino)-2-oxoethyl)thio)acetyl)piperazin-1-yl)prop-1-yn-1-yl)phenoxy)propyl)thiazole-4-carboxylic acid] | 107 | 623 | 88.5
22.1 | 8.15 | Cc1ncsc1-c1ccc([C@H](C)NC(=O)[C@@H]2C[C@@H](O)CN2C(=O)[C@@H](NC(=O)CCCCCCCC(=O)N2CCN(CC#Cc3ccc(OCCCc4sc(N5CCCc6c5nnc(Nc5nc7ccccc7s5)c6C)nc4C(=O)O)c(F)c3)CC2)C(C)(C)C)cc1 [Example 38, 2-(3-(benzo[d]thiazol-2-ylamino)-4-methyl-6,7-dihydropyrido [2,3-c]pyridazin-8(5H)-yl)-5-(3-(2-fluoro-4-(3-(4-(9-(((S)-1-((2S,4R)-4-hydroxy-2-(((S)-1-(4-(4-methylthiazol-5-yl)phenyl)ethyl)carbamoyl)pyrrolidin-1-yl)-3,3-dimethyl-1-oxobutan-2-yl)amino)-9-oxononanoyl)piperazin-1-yl)prop-1-yn-1-yl)phenoxy)propyl)thiazole-4-carboxylic acid] | 87.9 | 83.1 | 87.4
63.6 | 38.4 | Cc1ncsc1-c1ccc([C@H](C)NC(=O)[C@@H]2C[C@@H](O)CN2C(=O)[C@@H](NC(=O)CC2(CC(=O)N3CCN(CC#Cc4ccc(OCCCc5sc(N6CCCc7c6nnc(Nc6nc8ccccc8s6)c7C)nc5C(=O)O)c(F)c4)CC3)CCCC2)C(C)(C)C)cc1 [Example 39, 2-(3-(benzo[d]thiazol-2-ylamino)-4-methyl-6,7-dihydropyrido [2,3-c]pyridazin-8(5H)-yl)-5-(3-(2-fluoro-4-(3-(4-(2-(1-(2-(((S)-1-((2S,4R)-4-hydroxy-2-(((S)-1-(4-(4-methylthiazol-5-yl)phenyl)ethyl)carbamoyl)pyrrolidin-1-yl)-3,3-dimethyl-1-oxobutan-2-yl)amino)-2-oxoethyl)cyclopentyl)acetyl)piperazin-1-yl)prop-1-yn-1-yl)phenoxy)propyl) thiazole-4-carboxylic acid] | 96.4 | 524 | 95.3

— patent publication US20240376094A2, “SELECTIVE BCL-XL PROTAC COMPOUNDS AND METHODS OF USE” (Les Laboratoires Servier, priority 2021, published 2024)
